These are literature values, as cited in US20100069490A1 (priority 2006, published 2010).

Each structure is given as a SMILES string. Structures can show the parent of a compound that is named as a salt.

In series [1] the test system is rhino mouse model. The note with it: applied locally.
The conditions of series [2]: in vivo and in vitro.
In series [3] the test system is human polymorphonuclear leukocytes.
In series [4] the test system is lipase. The conditions noted are these: pure or in combination with synergisms.
The test system of series [5] is bacteria.

On to `COc1ccc(-c2ccc3cc(C(=O)O)ccc3c2)cc1C12CC3CC(CC(C3)C1)C2` [Adapalene, 6-[3-(1-adamantyl)-4-methoxypheny]-2-naphthanoic acid], for which the comedolitic activity entry in series [1] is “comedolitic”. For the same compound, in series [2], the “anti-inflammatory activity versus reference retinoids” value is given as “superior to the reference retinoids”. Besides, the “inhibition of chemiotaxic and chemiokinetic response” value in series [3] is “inhibits the chemiotaxic and chemiokinetic response”.
For the compound `CCOC(=O)CC(O)(CC(=O)OCC)C(=O)OCC` [Triethyl citrate, Triethyl-2-hydroxypropan-1,2,3-tricarboxylate], the “inhibition of hydrolysis of the triglycerides” value in series [4] was “able to inhibit hydrolysis of the triglycerides”. For the same compound, the antibacterial activity entry in series [5] is “has antibacterial activity”.
